Results from patent publication US20260041649A1, “ANTI-INFLAMMATORY AGENT” (WATANABE OYSTER LABORATORY, CO., LTD., priority 2023, published 2026).

System: RAW264.7 cells stimulated with LPS
Experiment: Measurement of osteoclast formation (TRACP-positive MNCs)
Type: cell-based, mouse
Procedure: Cells (1×10^5 cells/1 ml per well in a 24-well plate) were cultured for 3 days in DMEM containing 10% FBS, 1% P/S, and 1% fungizone in the control group (1% ethanol as final concentration) and in the DHMBA-treated group (0.1, 1, 10, or 100 μM) with or without LPS (100 ng/ml). The old culture medium was replaced with fresh conditioned culture medium (0.5 ml) containing LPS and/or DHMBA, and the cells were cultured for another 3 days (FIG. 9A). Cells (1×10^5 cells/1 ml per well in a 24-well plate) were cultured for 3 days in the above DMEM culture medium with LPS (100 ng/ml) but without DHMBA. […] TRACP-positive multinucleated cells (MNCs) (with 3 or more nuclei) were counted as osteoclast-like cells under a microscope (40× magnification). […]
RAW264.7 cells (1×10^5 cells/1 ml per well in a 24-well plate) were cultured for 3 days in a DMEM culture medium containing 10% FBS, 1% P/S, and 1% fungizone in the control group (1% ethanol in the culture medium as final concentration) and the LPS-treated group (100 ng/ml in the culture medium) with or without DHMBA (0.1, 1, 10, or 100 μM). […] TRACP-positive multinucleated cells (MNCs) having three or more nuclei were counted as osteoclast-like cells under a microscope (40× magnification) (Olympus MTV-3; Olympus Corp., Tokyo, Japan). […]

Compound: COc1c(O)cc(CO)cc1O [DHMBA, 3,5-dihydroxy-4-methoxybenzyl alcohol]
- LPS-enhanced osteoclast formation, late stage (3 days LPS 100 ng/ml alone, then 3 days LPS plus DHMBA 0.1, 1, 10 or 100 μM): suppressed
- LPS-enhanced osteoclast formation (LPS 100 ng/ml and DHMBA 0.1, 1, 10 or 100 μM together for 6 days): suppressed
